Here are results for 20 molecules from patent publication US9040545B2, “Heterocyclyl pyrazolopyrimidine analogues as selective JAK inhibitors” (Cellzome Limited, priority 2010, dated 2015).

For assay [1], the target named is T1, Aurora A (Homo sapiens, UniProt O14965).
T1 construct: cell lysates from Jurkat cells (ATCC TIB-152) used; endogenous in cells; host or cells: Jurkat cells (ATCC TIB-152), treated with pervanadate
T1 sequence (O14965 1-403): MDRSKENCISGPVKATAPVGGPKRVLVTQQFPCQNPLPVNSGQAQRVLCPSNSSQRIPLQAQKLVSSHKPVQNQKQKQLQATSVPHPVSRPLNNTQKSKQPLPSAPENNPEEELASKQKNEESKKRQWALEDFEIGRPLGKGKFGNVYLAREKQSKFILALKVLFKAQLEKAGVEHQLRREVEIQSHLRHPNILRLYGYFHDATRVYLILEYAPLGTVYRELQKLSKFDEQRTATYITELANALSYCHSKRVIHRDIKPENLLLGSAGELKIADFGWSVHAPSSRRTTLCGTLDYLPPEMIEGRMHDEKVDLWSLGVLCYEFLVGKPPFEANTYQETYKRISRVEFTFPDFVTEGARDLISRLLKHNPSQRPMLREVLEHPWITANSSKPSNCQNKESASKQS
Kind of assay: Kinobeads assay, Aurora A. It counts as binding. As to conditions: for IC50: lysate of pervanadate-treated Jurkat cells, read-out: Inhibition values (IC50) Aur A.

Assay [2] has as its target T2, Aurora B (Homo sapiens, UniProt Q96GD4).
T2 construct: cell lysates from Jurkat cells (ATCC TIB-152) used; endogenous in cells; host or cells: Jurkat cells (ATCC TIB-152), treated with pervanadate
The assay can be described thus: Kinobeads assay, Aurora B. It counts as binding. As to conditions: for IC50: lysate of pervanadate-treated Jurkat cells, read-out: Inhibition values (IC50) Aur B.

T2 sequence (Q96GD4 whole entry): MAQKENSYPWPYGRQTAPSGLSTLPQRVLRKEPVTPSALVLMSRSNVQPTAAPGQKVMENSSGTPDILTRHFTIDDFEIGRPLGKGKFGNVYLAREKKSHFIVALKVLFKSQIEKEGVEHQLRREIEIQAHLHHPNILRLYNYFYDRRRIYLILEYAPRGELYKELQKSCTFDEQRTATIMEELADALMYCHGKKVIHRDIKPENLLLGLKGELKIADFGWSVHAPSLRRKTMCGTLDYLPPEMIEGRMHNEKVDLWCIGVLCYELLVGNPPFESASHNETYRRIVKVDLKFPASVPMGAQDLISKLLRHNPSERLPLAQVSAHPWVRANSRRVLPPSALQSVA

With `O=C1COCCN1c1cc(F)c(F)c(Cn2ncc3cnc(Nc4cnn(CCO)c4)nc32)c1` [Example 59, 4-(3,4-Difluoro-5-((6-((1-(2-hydroxyethyl)-1H-pyrazol-4-yl)amino)-1H-pyrazolo[3,4-d]pyrimidin-1-yl)methyl)phenyl)morpholin-3-one], in assay [1], the “JAK3/AurA Fold Selectivity” value is on record as 10-50 Fold and the half-maximal inhibitory concentration (IC50) (in general, the concentration that gives 50% inhibition) was 100 to 1000 nM. Further, in assay [2], the “JAK3/AurB Fold Selectivity” value is listed as 10-50 Fold and the 50% inhibitory concentration (IC50) fell in the range of 100 to 1000 nM.
As for `O=C1CNCCN1c1cc(F)c(F)c(Cn2ncc3cnc(Nc4cnn(CCO)c4)nc32)c1` [Example 72, 1-(3,4-Difluoro-5-((6-((1-(2-hydroxyethyl)-1H-pyrazol-4-yl)amino)-1H-pyrazolo[3,4-d]pyrimidin-1-yl)methyl)phenyl)piperazin-2-one], in assay [1], the “JAK3/AurA Fold Selectivity” value is recorded as 10-50 Fold and the IC50 is 100 to 1000 nM. In assay [2], the “JAK3/AurB Fold Selectivity” value was 10-50 Fold and the IC50 lay within 100 to 1000 nM.
Take `CN(C)CCCn1cc(Nc2ncc3cnn(Cc4c(F)c(F)cc(N5CCOCC5=O)c4F)c3n2)cn1` [Example 70, 4-(3-((6-((1-(3-(Dimethylamino)propyl)-1H-pyrazol-4-yl)amino)-1H-pyrazolo[3,4-d]pyrimidin-1-yl)methyl)-2,4,5-trifluorophenyl)morpholin-3-one]: in assay [1], the “JAK3/AurA Fold Selectivity” value was over 50 Fold and the IC50 fell in the range of 1000 to 10000 nM. Besides, in assay [2], the “JAK3/AurB Fold Selectivity” value is 10-50 Fold and the IC50 lay within 100 to 1000 nM.
Regarding `OCCn1cc(Nc2ncc3cnn(Cc4cccc(N5CCNCC5)c4F)c3n2)cn1` [Example 83, 2-(4-((1-(2-Fluoro-3-(piperazin-1-yl)benzyl)-1H-pyrazolo[3,4-d]pyrimidin-6-yl)amino)-1H-pyrazol-1-yl)ethanol], in assay [1], the “JAK3/AurA Fold Selectivity” value is listed as 10-50 Fold and the half-maximal inhibitory concentration (IC50) was 100 to 1000 nM. In addition, in assay [2], the “JAK3/AurB Fold Selectivity” value is given as 3-10 Fold and the IC50 was under 100 nM.
For `OCCn1cc(Nc2ncc3cnn(Cc4c(F)c(F)cc(N5CCOCC5)c4F)c3n2)cn1` [Example 45, 2-(4-((1-(2,3,6-Trifluoro-5-morpholinobenzyl)-1H-pyrazolo[3,4-d]pyrimidin-6-yl)amino)-1H-pyrazol-1-yl)ethanol] the same measures were 10-50 Fold, 100 to 1000 nM, 10-50 Fold and 100 to 1000 nM.
For `Cn1cc(Nc2ncc3cnn(Cc4cc(N5CCOCC5=O)cc(F)c4F)c3n2)cn1` [Example 53, 4-(3,4-Difluoro-5-((6-((1-methyl-1H-pyrazol-4-yl)amino)-1H-pyrazolo[3,4-d]pyrimidin-1-yl)methyl)phenyl)morpholin-3-one] the same measures were over 50 Fold, 100 to 1000 nM, over 50 Fold and 100 to 1000 nM.
As to `c1cc(Cn2ncc3cnc(Nc4cnn(CC5CCCNC5)c4)nc32)cc(N2CCOCC2)c1` (centres unmarked) [Example 48, 1-(3-Morpholinobenzyl)-N-(1-(piperidin-3-ylmethyl)-1H-pyrazol-4-yl)-1H-pyrazolo[3,4-d]pyrimidin-6-amine], in assay [1], the “JAK3/AurA Fold Selectivity” value is listed as over 50 Fold and the IC50 was in the range of 1000 to 10000 nM. For the same molecule, in assay [2], the “JAK3/AurB Fold Selectivity” value was over 50 Fold and the half-maximal inhibitory concentration (IC50) lay in the range of 1000 to 10000 nM.
In the case of `COC1CCN(c2cccc(Cn3ncc4cnc(Nc5cnn(C)c5)nc43)c2)CC1` [Example 77, 1-(3-(4-Methoxypiperidin-1-yl)benzyl)-N-(1-methyl-1H-pyrazol-4-yl)-1H-pyrazolo[3,4-d]pyrimidin-6-amine], in assay [1], the “JAK3/AurA Fold Selectivity” value is 3-10 Fold and the IC50 was in the range of 100 to 1000 nM. Further, in assay [2], the “JAK3/AurB Fold Selectivity” value was 3-10 Fold and the IC50 was in the range of 100 to 1000 nM.
With `O=C1COCCN1c1cc(F)cc(Cn2ncc3cnc(Nc4cnn(CCO)c4)nc32)c1` [Example 58, 4-(3-Fluoro-5-((6-((1-(2-hydroxyethyl)-1H-pyrazol-4-yl)amino)-1H-pyrazolo[3,4-d]pyrimidin-1-yl)methyl)phenyl)morpholin-3-one], in assay [1], the “JAK3/AurA Fold Selectivity” value was 10-50 Fold and the IC50 lay within 100 to 1000 nM. Also, in assay [2], the “JAK3/AurB Fold Selectivity” value is 10-50 Fold and the IC50 lay in the range of 100 to 1000 nM.
Consider `c1cc(Cn2ncc3cnc(Nc4cnn(CC5CCNC5)c4)nc32)cc(N2CCOCC2)c1` (centres unmarked) [Example 60, 1-(3-Morpholinobenzyl)-N-(1-(pyrrolidin-3-ylmethyl)-1H-pyrazol-4-yl)-1H-pyrazolo[3,4-d]pyrimidin-6-amine], for which, in assay [1], the “JAK3/AurA Fold Selectivity” value is listed as over 50 Fold and the half-inhibitory concentration (IC50) lay in the range of 1000 to 10000 nM. Besides, in assay [2], the “JAK3/AurB Fold Selectivity” value is reported as over 50 Fold and the IC50 was in the range of 1000 to 10000 nM.
As to `OCCn1cc(Nc2ncc3cnn(Cc4c(F)ccc(N5CCOCC5)c4F)c3n2)cn1` [Example 82, 2-(4-((1-(2,6-Difluoro-3-morpholinobenzyl)-1H-pyrazolo[3,4-d]pyrimidin-6-yl)amino)-1H-pyrazol-1-yl)ethanol], in assay [1], the “JAK3/AurA Fold Selectivity” value is listed as 3-10 Fold and the IC50 fell in the range of 100 to 1000 nM. Besides, in assay [2], the “JAK3/AurB Fold Selectivity” value was 3-10 Fold and the half-inhibitory concentration (IC50) was under 100 nM.
`Cn1cc(Nc2ncc3cnn(Cc4cc(F)cc(N5CCOCC5)c4)c3n2)cn1` [Example 49, 1-(3-Fluoro-5-morpholinobenzyl)-N-(1-methyl-1H-pyrazol-4-yl)-1H-pyrazolo[3,4-d]pyrimidin-6-amine]: in assay [1], the “JAK3/AurA Fold Selectivity” value is 10-50 Fold and the IC50 is 100 to 1000 nM. In addition, in assay [2], the “JAK3/AurB Fold Selectivity” value was over 50 Fold and the concentration for half-maximal inhibition (IC50) lay within 1000 to 10000 nM.
As to `Cn1cc(Nc2ncc3cnn(Cc4cc(F)cc(C(=O)N5CCNCC5)c4)c3n2)cn1` [Example 80, (3-Fluoro-5-((6-((1-methyl-1H-pyrazol-4-yl)amino)-1H-pyrazolo[3,4-d]pyrimidin-1-yl)methyl)phenyl)(piperazin-1-yl)methanone], in assay [1], the “JAK3/AurA Fold Selectivity” value is recorded as 3-10 Fold and the concentration for half-maximal inhibition (IC50) was in the range of 100 to 1000 nM. Besides, in assay [2], the “JAK3/AurB Fold Selectivity” value is 10-50 Fold and the IC50 was in the range of 100 to 1000 nM.
Regarding `Cn1cc(Nc2ncc3cnn(Cc4c(F)c(F)cc(N5CCNCC5)c4F)c3n2)cn1` [Example 66, N-(1-Methyl-1H-pyrazol-4-yl)-1-(2,3,6-trifluoro-5-(piperazin-1-yl)benzyl)-1H-pyrazolo[3,4-d]pyrimidin-6-amine], in assay [1], the “JAK3/AurA Fold Selectivity” value is listed as 10-50 Fold and the half-inhibitory concentration (IC50) is 100 to 1000 nM. For the same molecule, in assay [2], the “JAK3/AurB Fold Selectivity” value is recorded as 3-10 Fold and the half-maximal inhibitory concentration (IC50) is under 100 nM.
Turning to `Cn1cc(Nc2ncc3cnn(Cc4cc(F)cc(N5CCNCC5=O)c4)c3n2)cn1` [Example 64, 1-(3-Fluoro-5-((6-((1-methyl-1H-pyrazol-4-yl)amino)-1H-pyrazolo[3,4-d]pyrimidin-1-yl)methyl)phenyl)piperazin-2-one], in assay [1], the “JAK3/AurA Fold Selectivity” value was 10-50 Fold and the IC50 was in the range of 100 to 1000 nM. Besides, in assay [2], the “JAK3/AurB Fold Selectivity” value is 10-50 Fold and the IC50 is 100 to 1000 nM.
With `OCCn1cc(Nc2ncc3cnn(Cc4cc(F)cc(N5CCOCC5)c4)c3n2)cn1` [Example 51, 2-(4-((1-(3-Fluoro-5-morpholinobenzyl)-1H-pyrazolo[3,4-d]pyrimidin-6-yl)amino)-1H-pyrazol-1-yl)ethanol], in assay [1], the “JAK3/AurA Fold Selectivity” value is 10-50 Fold and the half-inhibitory concentration (IC50) lay in the range of 100 to 1000 nM. For the same molecule, in assay [2], the “JAK3/AurB Fold Selectivity” value was over 50 Fold and the half-maximal inhibitory concentration (IC50) is 100 to 1000 nM.
Take `CNC(=O)Cn1cc(Nc2ncc3cnn(Cc4cc(F)cc(N5CCOCC5=O)c4)c3n2)cn1` [Example 68, 2-(4-((1-(3-Fluoro-5-(3-oxomorpholino)benzyl)-1H-pyrazolo[3,4-d]pyrimidin-6-yl)amino)-1H-pyrazol-1-yl)-N-methylacetamide]: in assay [1], the “JAK3/AurA Fold Selectivity” value is listed as 10-50 Fold and the IC50 was 100 to 1000 nM. In addition, in assay [2], the “JAK3/AurB Fold Selectivity” value is on record as over 50 Fold and the IC50 was in the range of 100 to 1000 nM.
Consider `OCCn1cc(Nc2ncc3cnn(Cc4cccc(N5CCNCC5)c4)c3n2)cn1` [Example 47, 2-(4-((1-(3-(piperazin-1-yl)benzyl)-1H-pyrazolo[3,4-d]pyrimidin-6-yl)amino)-1H-pyrazol-1-yl)ethanol], for which, in assay [1], the “JAK3/AurA Fold Selectivity” value is 10-50 Fold and the IC50 lay within 100 to 1000 nM. Besides, in assay [2], the “JAK3/AurB Fold Selectivity” value is 10-50 Fold and the IC50 was 100 to 1000 nM.
Take `Cn1cc(Nc2ncc3cnn(Cc4c(F)ccc(N5CCOCC5=O)c4F)c3n2)cn1` [Example 69, 4-(2,4-Difluoro-3-((6-((1-methyl-1H-pyrazol-4-yl)amino)-1H-pyrazolo[3,4-d]pyrimidin-1-yl)methyl)phenyl)morpholin-3-one]: in assay [1], the “JAK3/AurA Fold Selectivity” value was 3-10 Fold and the IC50 was under 100 nM. Besides, in assay [2], the “JAK3/AurB Fold Selectivity” value was 10-50 Fold and the concentration for half-maximal inhibition (IC50) fell in the range of 100 to 1000 nM.
On to `OCCn1cc(Nc2ncc3cnn(Cc4cc(N5CCOCC5)ccc4F)c3n2)cn1` [Example 44, 2-(4-((1-(2-Fluoro-5-morpholinobenzyl)-1H-pyrazolo[3,4-d]pyrimidin-6-yl)amino)-1H-pyrazol-1-yl)ethanol], for which, in assay [1], the “JAK3/AurA Fold Selectivity” value was 10-50 Fold and the IC50 lay in the range of 100 to 1000 nM. In addition, in assay [2], the “JAK3/AurB Fold Selectivity” value was 10-50 Fold and the IC50 is 100 to 1000 nM.
